In patent publication US20120016011A1, “RNA Interference Mediated Inhibition of Connective Tissue Growth Factor (CTGF) Gene Expression Using Short Interfering Nucleic Acid (siNA)” (Merck Sharp & Dohme Corp., priority 2009, published 2012):
[invAb] = inverted abasic unit; m = 2'-O-methyl; r = 2'-OH (RNA); f = 2'-fluoro

Test system: CTGF mRNA
Assay: CTGF mRNA knockdown (Taqman RT-PCR) after siNA transfection of human NHLF cells
Type: cell-based
Conditions: for % KD Human: 10 nM siNA, 24 hrs, average of 3 experiments, vs non-targeting control; for % KD CTGF mRNA at 10 nM / IC50: mean ± S.D.
How it was run: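 Normal human lung fibroblasts (5000 cells/well) were transfected 24 h after plating with 10 nM siNA complexed with RNAiMax and harvested 24 h later without a media change. CTGF mRNA was measured by TaqMan RT-qPCR on Cells-to-CT lysates, with β-actin and GAPDH assayed alongside. Knockdown was calculated by comparative Ct (ΔΔCt) against non-targeting control siNA.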

Substance | % KD Human [%] | % KD CTGF mRNA at 10 nM [%] | IC50 [nM]
48046-DC: siNA duplex; sense SEQ ID NO: 57 B cAcAGcAccAGAAuGuAuA TTB; antisense SEQ ID NO: 58 UAUAcAuucuGGuGcuGuGUU (sense CACAGCACCAGAAUGUAUATT; antisense UAUACAUUCUGGUGCUGUGUU; sense: DNA at AGT, 2'-fluoro at CU, [invAb] at 5' end, 3' end, backbone not given here; antisense: sugars from the 5' end rrrmfmffffmmfmffmfmmm, backbone not given here) | 85 ± 3 | 85 ± 3 | 0.031 ± 0.011
48042-DC: siNA duplex; sense SEQ ID NO: 49 B GAcAuuAAcucAuuAGAcu TTB; antisense SEQ ID NO: 50 AGUcuAAuGAGuuAAuGucUU (sense GACAUUAACUCAUUAGACUTT; antisense AGUCUAAUGAGUUAAUGUCUU; sense: DNA at AGT, 2'-fluoro at CU, [invAb] at 5' end, 3' end, backbone not given here; antisense: sugars from the 5' end rrrffmmfmmmffmmfmffmm, backbone not given here) | 90 ± 1 | 90 ± 1 | 0.095 ± 0.022
48055-DC: siNA duplex; sense SEQ ID NO: 75 B cAAGuuAuuuAAAucuGuu TTB; antisense SEQ ID NO: 76 AACAGAuuuAAAuAAcuuGUU (sense CAAGUUAUUUAAAUCUGUUTT; antisense AACAGAUUUAAAUAACUUGUU; sense: DNA at AGT, 2'-fluoro at CU, [invAb] at 5' end, 3' end, backbone not given here; antisense: sugars from the 5' end rrrmmmfffmmmfmmfffmmm, backbone not given here) | 88 ± 0 | 88 ± 0 | 0.11 ± 0.038
48047-DC: siNA duplex; sense SEQ ID NO: 59 B cGAGuAAuAuGccuGcuAu TTB; antisense SEQ ID NO: 60 AUAGcAGGcAuAuuAcucGUU (sense CGAGUAAUAUGCCUGCUAUTT; antisense AUAGCAGGCAUAUUACUCGUU; sense: DNA at AGT, 2'-fluoro at CU, [invAb] at 5' end, 3' end, backbone not given here; antisense: sugars from the 5' end rrrmfmmmfmfmffmfffmmm, backbone not given here) | 81 ± 3 | 81 ± 3 | 0.071 ± 0.03
48048-DC: siNA duplex; sense SEQ ID NO: 61 B GAuAGcAucuuAuAcGAGu TTB; antisense SEQ ID NO: 62 ACUcGuAuAAGAuGcuAucUU (sense GAUAGCAUCUUAUACGAGUTT; antisense ACUCGUAUAAGAUGCUAUCUU; sense: DNA at AGT, 2'-fluoro at CU, [invAb] at 5' end, 3' end, backbone not given here; antisense: sugars from the 5' end rrrfmfmfmmmmfmffmffmm, backbone not given here) | 80 ± 3 | 80 ± 3 | 0.049 ± 0.016
